# Assay results from US9161946B2, “Dosing methods for treating disease” (Anadys Pharmaceuticals, Inc., priority 2007, dated 2015).
# Legend:
# Assay type in all cases: in vivo, cynomolgus macaques
# IL-6 = IL-6 in plasma after 3rd dose, multiplexed immunoassay; conditions: after 3rd dose of 100 mg/kg
# Source text: (§1) Each point indicates an individual animal. Fine lines indicate geometric mean. * indicates significant difference (p<0.05) between pre-treatment and post-dose values; ns: not significant. Non-responders are defined as animals with baseline interferon-α values after both the 1st and 2nd doses. Three such animals were excluded in the QOD group (n=7 final). No animals were excluded from the QD group (n=20 final).
# (§2) The pharmacodynamic response of a continuous daily dosing schedule (QD) was compared to a cyclic dosing schedule of every-other-day (QOD) and a cyclic dosing schedule of 3 consecutive days of dosing followed by 4 consecutive days of resting (‘3 on 4 off’). […] Immune parameters measured include cytokine and chemokine secretion in plasma measured by multiplexed immunoassay, neopterin levels in plasma measured by Enzyme Linked Immunosorbant Assay (ELISA), and cytotoxic T cell (CD8 T) effector proliferative state and B cell proliferative state in peripheral blood leukocytes as measured by flow cytometry analysis of Ki67 levels. […]
# (§3) Cynomolgus macaques were given either 30 mg/kg or 100 mg/kg of Compound I as the tosylate or 2 mg/kg 852A for 7 consecutive days of QD dosing followed by 7 days of additional monitoring. The immune response was determined by measuring cytokine and neopterin levels in plasma, as well as B cell and T cell responses in peripheral blood.
# TNF-α = TNF-α in plasma after 3rd dose, multiplexed immunoassay; conditions: after 3rd dose of 100 mg/kg, QD (D3) versus QOD (D5)
# Source text: as §1, §2, §3
# MCP-1 = MCP-1 in plasma after 3rd dose, multiplexed immunoassay; conditions: after 3rd dose of 100 mg/kg, pre-treatment subtracted, p<0.05
# Source text: as §1, §2, §3
# IFN-α = IFN-α level in plasma after oral dosing, multiplexed immunoassay; conditions: for Mean Concentration of IFN-α: oral; for IFN-α levels on the third day of the cycle: 3 on 4 off, 100 mg/kg, average±SEM, n=4
# Description: (§4) The pharmacodynamic response of a continuous daily dosing schedule (QD) was compared to a cyclic dosing schedule of every-other-day (QOD) and a cyclic dosing schedule of 3 consecutive days of dosing followed by 4 consecutive days of resting (‘3 on 4 off’). All three dosing schedules were conducted with orally administered Compound I Tosylate. Immune parameters measured include cytokine and chemokine secretion in plasma measured by multiplexed immunoassay, neopterin levels in plasma measured by Enzyme Linked Immunosorbant Assay (ELISA), and cytotoxic T cell (CD8 T) effector proliferative state and B cell proliferative state in peripheral blood leukocytes as measured by flow cytometry analysis of Ki67 levels.
# Cynomolgus macaques were given 10, 30, 100 or 300 mg/kg (Compound I equivalents) of Compound I Tosylate according to an every-other-day dosing schedule for 14 days, 28 days, or 13 weeks followed by recovery periods of various lengths. The immune response was determined by measuring cytokine and neopterin levels in plasma, as well as B cell and T cell responses in peripheral blood.
# (§5) Cynomolgus macaques were given either 30 mg/kg or 100 mg/kg of Compound I as the tosylate according to a dosing schedule of 3 consecutive days of dosing followed by 4 consecutive days of resting (‘3 on 4 off’) over 3 or 8 weeks. The immune response was determined by measuring cytokine and neopterin levels in plasma, as well as B cell and T cell responses in peripheral blood.
# as §3
# IL-12 = IL-12 in plasma after 3rd dose, multiplexed immunoassay; conditions: after 3rd dose of 100 mg/kg, pre-treatment subtracted, p<0.05
# Source text: as §1, §2, §3
# [1] = tested on: B cell in peripheral blood leukocytes; test: B cell proliferative state, flow cytometry of Ki67; conditions: 3 on 4 off schedule, repeated courses, FIG. 4B (100 mg/kg)
# Description: as §4, §5
# neopterin = test: Neopterin level in plasma, ELISA; conditions: QD schedule, 7 consecutive days, FIG. 1C (100 mg/kg)
# Description: as §4, §3
# [2] = tested on: cytotoxic T cell (CD8 T) in peripheral blood leukocytes; test: Cytotoxic T cell (CD8 T) effector proliferative state, flow cytometry of Ki67; conditions: 3 on 4 off schedule, FIG. 3B (100 mg/kg)
# Description: as §4, §5
# [3] = QD schedule, 100 mg/kg per dose, p<0.05
structure (smiles),measurement,setting,value
"CC(=O)O[C@@H]1C[C@@H](CO)O[C@H]1n1c(=O)sc2cnc(N)nc21 [Compound I, 5-amino-3-(2′-O-acetyl-3′-deoxy-beta-D-ribofuranosyl)-3H-thiazolo[4,5-d]pyrimidin-2-one]",IL-6 induction versus pre-treatment,IL-6; QD (D3) versus QOD (D5),"significantly induced (p<0.05) by the QD, but not by the QOD schedule"
same,"Level of IL-6 expressed relative to IFN-α, QD compared to QOD","IL-6; pre-treatment subtracted, p<0.05",significantly higher
same,TNF-α induction versus pre-treatment,TNF-α,"significantly induced (p<0.05) by the QD, but not by the QOD schedule"
same,"Level of MCP-1 expressed relative to IFN-α, QD compared to QOD",MCP-1,significantly higher
same,Mean Concentration of IFN-α,"IFN-α; 3 on 4 off schedule, Day 1, 100 mg/kg per dose as tosylate salt, 3 hours after dosing, mean ± SEM, pre-treatment subtracted",175 ± 69 pg/mL
same,Mean Concentration of IFN-α,"IFN-α; 3 on 4 off schedule, Day 3, 100 mg/kg per dose as tosylate salt, 3 hours after dosing, mean ± SEM, pre-treatment subtracted",4192 ± 768 pg/mL
same,Mean Concentration of IFN-α,"IFN-α; 3 on 4 off schedule, Day 5 (resting day, no dose), 100 mg/kg per dose as tosylate salt",Baseline*
same,Mean Concentration of IFN-α,"IFN-α; 3 on 4 off schedule, Day 7 (resting day, no dose), 100 mg/kg per dose as tosylate salt",Baseline*
same,IFN-α levels on the third day of the cycle,IFN-α; first cycle,4192±768
same,IFN-α levels on the third day of the cycle,IFN-α; second cycle,3832±1329
same,IFN-α levels on the third day of the cycle,IFN-α; third cycle,3879±1140
same,Mean Concentration of IFN-α,"IFN-α; QD schedule, Day 1, 100 mg/kg per dose as tosylate salt, 3 hours after dosing, mean ± SEM, pre-treatment subtracted",498 ± 252 pg/mL
same,Mean Concentration of IFN-α,"IFN-α; QD schedule, Day 3, 100 mg/kg per dose as tosylate salt, 3 hours after dosing, mean ± SEM, pre-treatment subtracted",8057 ± 1566 pg/mL
same,Mean Concentration of IFN-α,"IFN-α; QD schedule, Day 5, 100 mg/kg per dose as tosylate salt, 3 hours after dosing, mean ± SEM, pre-treatment subtracted",2166 ± 615 pg/mL
same,Mean Concentration of IFN-α,"IFN-α; QD schedule, Day 7, 100 mg/kg per dose as tosylate salt, 3 hours after dosing, mean ± SEM, pre-treatment subtracted",151 ± 105 pg/mL
same,Mean Concentration of IFN-α,"IFN-α; QOD schedule, Day 1, 100 mg/kg per dose as tosylate salt, 3 hours after dosing, mean ± SEM, pre-treatment subtracted",1293 ± 513 pg/mL
same,Mean Concentration of IFN-α,"IFN-α; QOD schedule, Day 3, 100 mg/kg per dose as tosylate salt, 3 hours after dosing, mean ± SEM, pre-treatment subtracted",1459 ± 634 pg/mL
same,Mean Concentration of IFN-α,"IFN-α; QOD schedule, Day 5, 100 mg/kg per dose as tosylate salt, 3 hours after dosing, mean ± SEM, pre-treatment subtracted",1816 ± 1012 pg/mL
same,Mean Concentration of IFN-α,"IFN-α; QOD schedule, Day 7, 100 mg/kg per dose as tosylate salt, 3 hours after dosing, mean ± SEM, pre-treatment subtracted",2375 ± 982 pg/mL
same,"Level of IL-12 expressed relative to IFN-α, QD compared to QOD",IL-12,significantly higher
CC(=O)O[C@@H]1C[C@@H](CO)O[C@H]1n1c(=O)sc2cnc(N)nc21.Cc1ccc(S(=O)(=O)O)cc1 [Compound I Tosylate],B cell proliferative state as measured by Ki67 levels,[1],enhanced
same,IFN-α level at day 7 for QOD higher than on day 7 for QD,"IFN-α; 100 mg/kg per dose, p<0.05",15.8 fold
same,IFN-α levels in plasma after 6 doses,"IFN-α; 3 on 4 off schedule, day 3 in the second cycle, 100 mg/kg (Compound I equivalents)",3832±1329
same,IFN-α response on day 7 lower than response on day 1,"IFN-α; QD schedule, 100 mg/kg per dose",3.3 fold
same,IFN-α levels on day 5 compared to day 3,IFN-α; [3],significantly reduced
same,IFN-α levels on day 7 compared to day 3,IFN-α; [3],significantly reduced
same,Time of peak IFN-α level before decline,"IFN-α; QD schedule, 7 consecutive days, FIG. 1C (100 mg/kg)",3-4 days of dosing
same,IFN-α levels in plasma after 6 doses,"IFN-α; QD schedule, Day 6, 100 mg/kg (Compound I equivalents)",922±739
same,Time of peak neopterin level before decline,neopterin,3-4 days of dosing
same,T cell responses over repeated courses,[2],either maintained or enhanced
